According to article PMC9060465 (Proceedings of the National Academy of Sciences of the …, 2022):

Assays:
GLP-1R [1] = target: T1, GLP-1R (Homo sapiens, UniProt P43220); experiment: GLP-1R low density cAMP accumulation in HEK293 cells; assay type: cell-based; set-up: expressed in transfected cells; host or cells: HEK293
Protocol: (§1) Fig. 4. […] (B) Ligand-induced GTPγS binding of Gαs was performed using the GIPR-expressing membranes. […] (C) Agonist-stimulated cAMP production was measured in human GIPR expressing HEK293 cells. […] (E) Ligand-induced GTPγS binding of Gαs was performed using the GLP-1R-expressing membranes. […] (F) Agonist-stimulated cAMP production was measured in human GLP-1R-expressing HEK293 cells. […] Data presented are representative of n ≥ 3 independent experiments. Summarized data are shown in SI Appendix, Table 2. log M; log Molar.
(§2) We note that the albumin-binding propensity of fatty acid-modified peptides can confound a pharmacological comparison of molecules, given the common use of albumin and serum as nonspecific blocking agents in biological assays. Therefore, to obviate this, entirely albumin-free assays supplemented with bovine casein or bacitracin were used to prevent nonspecific binding ([10]). […]
(§3) Middle Panel: The affinity (Ki) of ligands for the GLP-1R was […]
(§4) Functional potency (EC50) and efficacy (% Top) of ligands to induce Gα s-GTPγS binding and cAMP accumulation in HEK293 cells expressing GLP-1R were determined. The equilibrium affinity (KD) of ligands for the immobilized ectodomain of the GLP-1R were quantified by surface plasmon resonance. […]
(§5) SPR data were analyzed using T200 evaluation software (Cytiva). All data are presented as geometric means with SEM and n values according to established practices. ND, not determined. NA, not applicable.
Target sequence in this assay (P43220 24-463): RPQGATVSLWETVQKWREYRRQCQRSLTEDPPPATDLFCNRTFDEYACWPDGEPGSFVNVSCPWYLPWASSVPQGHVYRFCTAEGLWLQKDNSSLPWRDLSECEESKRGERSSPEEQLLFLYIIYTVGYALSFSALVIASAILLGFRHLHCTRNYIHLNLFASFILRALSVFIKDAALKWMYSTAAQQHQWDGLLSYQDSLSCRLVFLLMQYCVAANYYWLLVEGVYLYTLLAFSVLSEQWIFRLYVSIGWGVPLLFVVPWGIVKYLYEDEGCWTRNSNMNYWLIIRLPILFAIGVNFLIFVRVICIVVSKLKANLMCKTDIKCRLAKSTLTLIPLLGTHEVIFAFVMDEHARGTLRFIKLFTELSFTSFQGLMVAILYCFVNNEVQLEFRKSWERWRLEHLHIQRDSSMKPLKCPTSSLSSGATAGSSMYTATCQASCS

human GIPR = target: T2, human GIPR (Homo sapiens, UniProt P48546); experiment: GIPR Gαs [35S]GTPγS binding, GIPR-expressing membranes; assay type: biochemical
T2 construct: expressed in transfected cells; host or cells: HEK293
T2 sequence (P48546 22-466): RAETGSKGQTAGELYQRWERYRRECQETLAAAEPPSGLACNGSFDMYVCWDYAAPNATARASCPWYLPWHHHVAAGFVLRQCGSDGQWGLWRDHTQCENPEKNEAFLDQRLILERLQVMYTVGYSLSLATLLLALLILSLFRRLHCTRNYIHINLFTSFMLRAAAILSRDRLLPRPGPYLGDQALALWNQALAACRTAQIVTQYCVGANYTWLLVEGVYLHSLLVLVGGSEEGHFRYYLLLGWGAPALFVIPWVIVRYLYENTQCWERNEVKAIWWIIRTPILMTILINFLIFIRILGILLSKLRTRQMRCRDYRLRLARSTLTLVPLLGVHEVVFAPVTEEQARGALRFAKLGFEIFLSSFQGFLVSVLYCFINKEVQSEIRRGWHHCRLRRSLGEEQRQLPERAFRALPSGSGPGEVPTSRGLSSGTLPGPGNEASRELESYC
Protocol: as §1
We note that the albumin-binding propensity of fatty acid-modified peptides can confound a pharmacological comparison of molecules, given the common use of albumin and serum as nonspecific blocking agents in biological assays. Therefore, to obviate this, entirely albumin-free assays supplemented with bovine casein or bacitracin were used to prevent nonspecific binding ([10]).
Functional potency (EC50)
and efficacy (% Top) of ligands to induce Gα s -GTPγS binding and cAMP accumulation in HEK293 cells expressing GIPR were determined. The equilibrium affinity (KD) of
ligands for the immobilized ectodomain of the GIPR were quantified by surface plasmon resonance. […]
SPR data were analyzed using T200 evaluation software (Cytiva). All data are presented as geometric means with SEM and n values
(§6) according to established practices. ND, not determined. NA, not applicable.

GLP-1R [2] = target: T1, GLP-1R; experiment: GRK2 recruitment to the GLP-1R, NanoBRET; assay type: cell-based; set-up: expressed in transfected cells; host or cells: freestyle HEK cells
Protocol: After 48 h, transfected cells were incubated in phosphate-buffered saline (PBS) containing 0.1% (wt/vol) bovine casein and varying concentrations of the ligands. […]
The potency (EC50) and efficacy (% Top) for ligands to induce GLP-1R Internalization were
determined using diffusion-enhanced resonance energy transfer.
relative efficacy for NanoBRET assays. SPR data were analyzed using T200 evaluation software (Cytiva). All data are presented as geometric means with SEM and n values
as §6
Target sequence in this assay (P43220 24-463): as the sequence (P43220 24-463) above
Target sequence in this assay (P25098 whole entry partner): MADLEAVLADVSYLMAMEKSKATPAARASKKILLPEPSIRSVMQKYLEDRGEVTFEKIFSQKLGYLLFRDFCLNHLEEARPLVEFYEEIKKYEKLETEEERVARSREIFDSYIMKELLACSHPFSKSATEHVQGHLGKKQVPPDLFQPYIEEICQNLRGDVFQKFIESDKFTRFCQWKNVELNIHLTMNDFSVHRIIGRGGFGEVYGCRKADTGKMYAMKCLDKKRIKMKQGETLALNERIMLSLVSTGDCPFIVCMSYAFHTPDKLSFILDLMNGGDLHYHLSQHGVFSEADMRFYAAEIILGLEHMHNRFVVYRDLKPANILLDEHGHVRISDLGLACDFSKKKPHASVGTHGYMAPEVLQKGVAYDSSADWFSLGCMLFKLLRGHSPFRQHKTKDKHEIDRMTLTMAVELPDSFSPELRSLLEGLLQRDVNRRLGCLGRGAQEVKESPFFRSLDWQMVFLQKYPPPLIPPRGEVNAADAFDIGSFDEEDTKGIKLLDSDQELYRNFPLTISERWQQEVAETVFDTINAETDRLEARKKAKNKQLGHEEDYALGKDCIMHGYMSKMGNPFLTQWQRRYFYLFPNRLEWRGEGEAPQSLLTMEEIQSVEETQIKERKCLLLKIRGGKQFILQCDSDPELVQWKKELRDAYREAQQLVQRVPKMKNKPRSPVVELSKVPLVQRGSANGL

GLP-1R [3] = target: T1, GLP-1R; experiment: GLP-1R Gαs [35S]GTPγS binding, GLP-1R-expressing membranes; assay type: biochemical; set-up: expressed in transfected cells; host or cells: HEK293
Protocol: as §1, §2, §3, §4, §5
Target sequence in this assay (P43220 24-463): as the sequence (P43220 24-463) above

[4] = efficacy (% Top), normalized to GLP-1(7-36), (SEM)

## CC[C@H](C)[C@H](NC(=O)[C@H](CC(C)C)NC(=O)[C@H](Cc1c[nH]c2ccccc12)NC(=O)[C@H](CCC(N)=O)NC(=O)[C@@H](NC(=O)[C@H](Cc1ccccc1)NC(=O)[C@H](C)NC(=O)[C@H](CCCCN)NC(=O)[C@H](CCC(N)=O)NC(=O)[C@H](C)NC(=O)[C@@H](NC(=O)[C@H](CCCCN)NC(=O)[C@H](CC(=O)O)NC(=O)[C@H](CC(C)C)NC(=O)C(C)(C)NC(=O)[C@@H](NC(=O)[C@H](CO)NC(=O)[C@H](Cc1ccc(O)cc1)NC(=O)[C@H](CC(=O)O)NC(=O)[C@H](CO)NC(=O)[C@@H](NC(=O)[C@H](Cc1ccccc1)NC(=O)[C@@H](NC(=O)CNC(=O)[C@H](CCC(=O)O)NC(=O)C(C)(C)NC(=O)[C@@H](N)Cc1ccc(O)cc1)[C@@H](C)O)[C@@H](C)O)[C@@H](C)CC)[C@@H](C)CC)C(C)C)C(=O)N[C@@H](C)C(=O)NCC(=O)NCC(=O)N1CCC[C@H]1C(=O)N[C@@H](CO)C(=O)N[C@@H](CO)C(=O)NCC(=O)N[C@@H](C)C(=O)N1CCC[C@H]1C(=O)N1CCC[C@H]1C(=O)N1CCC[C@H]1C(=O)N[C@@H](CO)C(N)=O [Tzp∆C20]
GLP-1R [1]; cAMP accumulation, HEK293 cells expressing GLP-1R, albumin-free, geometric mean (SEM, n)
  EC50: 1.05 nM
GLP-1R [1]; [4]
  GLP-1R Low Density cAMP Top: 105 (2) %
Human GIPR; Gαs-GTPγS binding, GIPR-expressing membranes, albumin-free, geometric mean (SEM, n), read-out: GIPR GTPγS Recruitment EC50
  EC50: 0.0733 nM
Human GIPR; efficacy (% Top), normalized to GIP(1-42), (SEM)
  GIPR GTPγS Recruitment Top: 91.0 (3.5) %
GLP-1R [2]; NanoBRET, transfected freestyle HEK cells, PBS with 0.1% casein, geometric mean (SEM, n)
  EC50: 1.92 nM
GLP-1R [2]; efficacy (% Top), relative to maximal GLP-1, (SEM)
  GLP-1R GRK2 Recruitment Top: 39.4 (3.7) %
GLP-1R [3]; Gαs-GTPγS binding, GLP-1R-expressing membranes, albumin-free, geometric mean (SEM, n), read-out: GLP-1R GTPγS Recruitment EC50
  EC50: 0.626 nM
GLP-1R [3]; [4]
  GLP-1R GTPγS Recruitment Top: 74.8 (9.1) %
